According to article PMC10178848, “Modulating fast skeletal muscle contraction protects skeletal muscle in animal models of Duchenne muscular dystrophy” (The Journal of Clinical Investigation, 2023):
Like-named read-outs stand apart in the source and are kept apart here.

Test system: GRMD plasma proteins
Assay type: in vivo, dog
[1] = Post-Treatment to GRMD baseline, Increased in GRMD

With O=c1ccc(-c2cnc(OCC(F)(F)F)nc2)nn1Cc1cncc(F)c1 [EDG-5506] as the molecule, how does the “NKG2D ligand 3 (ULBP3): Change from GRMD Baseline (fraction)” value [1] read?
The value was 0.0123 fraction.

And the “Neural cell adhesion molecule L1-like protein (CHL1): Change from GRMD Baseline (fraction)” value [1]?
The value was -0.0412 fraction.

What about the “Neurexophilin-1 (NXPH1): Change from GRMD Baseline (fraction)” value [1] of the same molecule?
The value was 0.3842 fraction.

And the “OX-2 membrane glycoprotein (CD200): Change from GRMD Baseline (fraction)” value [1]?
Its value is 0.1164 fraction.

And the “Persephin (PSPN): Change from GRMD Baseline (fraction)” value [1]?
Its value is -0.0043 fraction.

What about the “Phosphatidylinositol 4,5-bisphosphate 3-kinase catalytic subunit gamma isoform (PIK3CG): Change from GRMD Baseline (fraction)” value [1] of the same molecule?
Its value is 0.0292 fraction.

What about the “Pituitary adenylate cyclase-activating polypeptide 27 (ADCYAP1): Change from GRMD Baseline (fraction)” value [1] of the same molecule?
Its value is 0.0483 fraction.

What about the “Platelet factor 4 (PF4): Change from GRMD Baseline (fraction)” value [1] of the same molecule?
Its value is 0.0577 fraction.

And the “Platelet glycoprotein VI (GP6): Change from GRMD Baseline (fraction)” value [1]?
The value was 0.0535 fraction.

What about the “Prolactin (PRL): Change from GRMD Baseline (fraction)” value [1] of the same molecule?
The value was -0.0256 fraction.

What about the “Prolactin receptor (PRLR): Change from GRMD Baseline (fraction)” value [1] of the same molecule?
Its value is 0.085 fraction.

What about the “Proteasome subunit alpha type-6 (PSMA6): Change from GRMD Baseline (fraction)” value [1] of the same molecule?
Its value is 0.0724 fraction.

What about the “Protein E7_HPV18 (Human-virus): Change from GRMD Baseline (fraction)” value [1] of the same molecule?
The value was 0.0128 fraction.

And the “Proto-oncogene tyrosine-protein kinase receptor Ret (RET): Change from GRMD Baseline (fraction)” value [1]?
Its value is 0.0043 fraction.

And the “RNA-binding protein 39 (RBM39): Change from GRMD Baseline (fraction)” value [1]?
The value was -0.1347 fraction.

And the “Ras GTPase-activating protein 1 (RASA1): Change from GRMD Baseline (fraction)” value [1]?
Its value is -0.0705 fraction.

What about the “Ribosome maturation protein SBDS (SBDS): Change from GRMD Baseline (fraction)” value [1] of the same molecule?
The value was 0.0714 fraction.

What about the “SPARC-related modular calcium-binding protein 1 (SMOC1): Change from GRMD Baseline (fraction)” value [1] of the same molecule?
The value was -0.0726 fraction.

And the “Secreted and transmembrane protein 1 (SECTM1): Change from GRMD Baseline (fraction)” value [1]?
Its value is -0.1238 fraction.

What about the “Serine/threonine-protein kinase PAK 3 (PAK3): Change from GRMD Baseline (fraction)” value [1] of the same molecule?
The value was 0.077 fraction.

And the “Serine/threonine-protein kinase PAK 7 (PAK7): Change from GRMD Baseline (fraction)” value [1]?
Its value is -0.0176 fraction.

And the “Serine/threonine-protein kinase pim-1 (PIM1): Change from GRMD Baseline (fraction)” value [1]?
Its value is 0.0551 fraction.

What about the “Serum amyloid A-1 protein (SAA1): Change from GRMD Baseline (fraction)” value [1] of the same molecule?
Its value is -0.1642 fraction.

And the “Sialic acid-binding Ig-like lectin 7 (SIGLEC7): Change from GRMD Baseline (fraction)” value [1]?
The value was -0.0123 fraction.

And the “Small ubiquitin-related modifier 3 (SUMO3): Change from GRMD Baseline (fraction)” value [1]?
Its value is -0.0342 fraction.

And the “Stromelysin-1 (MMP3): Change from GRMD Baseline (fraction)” value [1]?
The value was 0.0381 fraction.

And the “Stromelysin-2 (MMP10): Change from GRMD Baseline (fraction)” value [1]?
Its value is -0.0469 fraction.

What about the “Synaptosomal-associated protein 25 (SNAP25): Change from GRMD Baseline (fraction)” value [1] of the same molecule?
Its value is 0.0227 fraction.

And the “T-cell surface glycoprotein CD4 (CD4): Change from GRMD Baseline (fraction)” value [1]?
Its value is 0.004 fraction.

And the “T-lymphocyte activation antigen CD86 (CD86): Change from GRMD Baseline (fraction)” value [1]?
The value was 0.0642 fraction.

And the “TATA-box-binding protein (TBP): Change from GRMD Baseline (fraction)” value [1]?
The value was -0.0819 fraction.

What about the “Thyroxine-binding globulin (SERPINA7): Change from GRMD Baseline (fraction)” value [1] of the same molecule?
The value was -0.0761 fraction.

What about the “Transcription factor IIIB 90 kDa subunit (BRF1): Change from GRMD Baseline (fraction)” value [1] of the same molecule?
Its value is 0.0702 fraction.

And the “Tumor necrosis factor ligand superfamily member 18 (TNFSF18): Change from GRMD Baseline (fraction)” value [1]?
Its value is 0.0235 fraction.

And the “Tumor necrosis factor receptor superfamily member 13B (TNFRSF13B): Change from GRMD Baseline (fraction)” value [1]?
Its value is -0.0295 fraction.

What about the “Tumor necrosis factor receptor superfamily member 13C (TNFRSF13C): Change from GRMD Baseline (fraction)” value [1] of the same molecule?
The value was -0.0266 fraction.

What about the “Tumor-associated calcium signal transducer 2 (TACSTD2): Change from GRMD Baseline (fraction)” value [1] of the same molecule?
The value was -0.0008 fraction.

What about the “Ubiquitin-conjugating enzyme E2 G2 (UBE2G2): Change from GRMD Baseline (fraction)” value [1] of the same molecule?
The value was -0.0144 fraction.

What about the “WNT1-inducible-signaling pathway protein 1 (WISP1): Change from GRMD Baseline (fraction)” value [1] of the same molecule?
The value was 0.0281 fraction.

What about the “WNT1-inducible-signaling pathway protein 3 (WISP3): Change from GRMD Baseline (fraction)” value [1] of the same molecule?
The value was 0.0371 fraction.

What about the “alpha-2-macroglobulin receptor-associated protein (LRPAP1): Change from GRMD Baseline (fraction)” value [1] of the same molecule?
The value was -0.0289 fraction.

And the “cGMP-dependent 3',5'-cyclic phosphodiesterase (PDE2A): Change from GRMD Baseline (fraction)” value [1]?
The value was 0.1206 fraction.

And the “Change from GRMD Baseline (fraction)” value (Protein deglycase DJ-1 (PARK7), EDG-5506 treatment to GRMD baseline)?
Its value is 0.1853 fraction.

And the “Change from GRMD Baseline (fraction)” value (Protein deglycase DJ-1 (PARK7), Post-Treatment to GRMD baseline)?
Its value is -0.0618 fraction.

What about the “Change from GRMD Baseline (fraction)” value (Proto-oncogene vav (VAV1), EDG-5506 treatment to GRMD baseline) of the same molecule?
Its value is 0.0609 fraction.

What about the “Change from GRMD Baseline (fraction)” value (Proto-oncogene vav (VAV1), Post-Treatment to GRMD baseline) of the same molecule?
Its value is 0.2228 fraction.

And the “Change from GRMD Baseline (fraction)” value (SH2 domain-containing protein 1A (SH2D1A), EDG-5506 treatment to GRMD baseline)?
The value was 0.0272 fraction.

And the “Change from GRMD Baseline (fraction)” value (SH2 domain-containing protein 1A (SH2D1A), Post-Treatment to GRMD baseline)?
Its value is 0.0814 fraction.

What about the “Change from GRMD Baseline (fraction)” value (Serine/threonine-protein kinase TBK1 (TBK1), EDG-5506 treatment to GRMD baseline) of the same molecule?
Its value is 0.0144 fraction.

And the “Change from GRMD Baseline (fraction)” value (Serine/threonine-protein kinase TBK1 (TBK1), Post-Treatment to GRMD baseline)?
Its value is 0.0415 fraction.

And the “Change from GRMD Baseline (fraction)” value (Sialic acid-binding Ig-like lectin 14 (SIGLEC14), EDG-5506 treatment to GRMD baseline)?
Its value is 0.0643 fraction.

What about the “Change from GRMD Baseline (fraction)” value (Sialic acid-binding Ig-like lectin 14 (SIGLEC14), Post-Treatment to GRMD baseline) of the same molecule?
Its value is -0.0249 fraction.

What about the “Change from GRMD Baseline (fraction)” value (Sorting nexin-4 (SNX4), EDG-5506 treatment to GRMD baseline) of the same molecule?
Its value is -0.0709 fraction.

What about the “Change from GRMD Baseline (fraction)” value (Sorting nexin-4 (SNX4), Post-Treatment to GRMD baseline) of the same molecule?
The value was 0.088 fraction.

And the “Change from GRMD Baseline (fraction)” value (Thrombin (F2), EDG-5506 treatment to GRMD baseline)?
The value was 0.2436 fraction.

And the “Change from GRMD Baseline (fraction)” value (Thrombin (F2), Post-Treatment to GRMD baseline)?
The value was 0.0387 fraction.

And the “Change from GRMD Baseline (fraction)” value (Transgelin-2 (TAGLN2), EDG-5506 treatment to GRMD baseline)?
The value was 0.1205 fraction.

What about the “Change from GRMD Baseline (fraction)” value (Transgelin-2 (TAGLN2), Post-Treatment to GRMD baseline) of the same molecule?
The value was -0.0633 fraction.

What about the “Change from GRMD Baseline (fraction)” value (WAP, kazal, immunoglobulin, kunitz and NTR domain-containing protein 1 (WFIKKN1), EDG-5506 treatment to GRMD baseline) of the same molecule?
Its value is 0.1609 fraction.

And the “Change from GRMD Baseline (fraction)” value (WAP, kazal, immunoglobulin, kunitz and NTR domain-containing protein 1 (WFIKKN1), Post-Treatment to GRMD baseline)?
Its value is -0.0946 fraction.
